Laboratory results taken from ChEMBL document CHEMBL4813929, “Isolation, Structure Determination, and Total Synthesis of Hoshinoamide C, an Antiparasitic Lipopeptide from the Marine Cyanobacterium Caldora penicillata” (J Nat Prod, 2021).

Assays:
Plasmodium falciparum = experiment: Antiplasmodial activity against asexual Plasmodium falciparum 3D7 infected in human erythrocytes assessed as reduction in parasitemia measured after 72 hrs by LDH assay; type: functional, organism-based; settings: 3D7, Erythrocyte
[1] = tested on: Trypanosoma brucei rhodesiense; experiment: Antitrypanosomal activity against Trypanosoma brucei rhodesiense IL-1501 assessed as parasite growth inhibition incubated for 69 hrs by AlamarBlue assay; type: functional, organism-based; settings: IL-1501, 69 h
HeLa = experiment: Cytotoxicity against human HeLa cells assessed as cell growth inhibition at 10 uM measured after 72 hrs by MTT assay; type: cell-based
HL-60 = experiment: Cytotoxicity against human HL-60 cells assessed as cell growth inhibition at 10 uM measured after 72 hrs by MTT assay; type: cell-based; settings: hl-60, 72 h

Row | IC50 (Plasmodium falciparum) | IC50 [1] | Compound | Activity (HeLa) | Activity (HL-60)
1 | 870 nM | 4400 nM | CC[C@H](C)[C@H](C(=O)N[C@@H](CCC(N)=O)C(=O)N[C@H](C(=O)N(C)[C@H](Cc1ccccc1)C(=O)N1CCC[C@H]1C(=O)OC)C(C)C)N(C)C(=O)[C@H](CC(C)C)NC(=O)CC[C@@H](C)CCCCNC(=O)CCCc1ccc(O)cc1 | Non-Toxic | Non-Toxic
2 | 0.96 nM |  | O=C1C(O)=C([C@H]2CC[C@H](c3ccc(Cl)cc3)CC2)C(=O)c2ccccc21 [ATOVAQUONE] |  | 
3 | 960 nM | 2900 nM | CC[C@H](C)[C@H](C(=O)N[C@@H](CCC(N)=O)C(=O)N[C@H](C(=O)N(C)[C@H](Cc1ccccc1)C(=O)N1CCC[C@H]1C(=O)OC)C(C)C)N(C)C(=O)[C@H](CC(C)C)NC(=O)CC[C@H](C)CCCCNC(=O)CCCc1ccc(O)cc1 | Non-Toxic | Non-Toxic
4 |  | 1 nM | N=C(N)c1ccc(OCCCCCOc2ccc(C(=N)N)cc2)cc1 [PENTAMIDINE] |  | 
